Reference: patent US7470442B2, “Confectionary compositions with magnolia bark extract” (GIC Innovations Company, priority 2005, dated 2008)
Converted amounts (≈) assume the structure as drawn.

Legend:
Format in all cases: cell-based
incubated saliva = assay: MIC of surface active agents and emulsifiers on incubated saliva, two-fold serial dilution; conditions: for MIC (ppm) / MIC: 24 hours at 37° C.; for germ-kill efficacy in words: summary of Table 9
Method: (§1) To evaluate the germ-kill efficacy and synergist effect when two or more germ-kill actives are combined, testing was performed to determine the ratio of MBE to surface active agent. The germ-kill active and/or surface active agent were dissolved in ethanol or sterile water to give an initial concentration 0.1% to 1%. The solution was diluted with a nutrient broth to give an initial concentration of 0.05% to 0.5%, which was then serially diluted two-fold so that each subsequent dilution contained 50% of the compound concentration of the previous dilution while maintaining a constant level of nutrients for each dilution. These dilutions were inoculated with representative oral microorganisms, or incubated saliva, and incubated for 24 hours at 37° C. For each surface active agent, the lowest dilution that was not turbid was registered as the MIC. The MBC was determined by transferring 10 microliter of liquid from non-turbid tubes to fresh growth media and incubated for 48 hours.

S. mutans [1] = assay: MIC and fractional inhibitory index of combinations on S. mutans; conditions: 24 hours at 37° C.
Method: as §1, with “hours. […] (1) where an FIC value of less than 1.0 is synergistic, an FIC between 1.0 and 2.0 is additive, and an FIC greater than 2.0 is antagonistic.” for “hours.”

[2] = tested on: bacteria from freshly-collected stimulated whole saliva; assay: Mixed culture saliva biofilm on saliva-coated hydroxyapatite discs, timed exposure to actives
Method: Although useful to show the comparative effect of Magnolia Bark Extract on biofilm formation and MIC growth, the foregoing test procedure may not effectively mimic the in vivo exposure of a confectionary composition such as a pressed tablet to a developing plaque biofilm. In an in vivo situation, the active could be exposed to the plaque for a defined period of time at a set frequency (for example, for 5 minutes, three times a day). Therefore, a series of comparative experiments were conducted to mimic the in vivo use of potential active ingredients. To perform the tests the saliva compositions listed below in Tables 2 and 3 were prepared. A mixed culture system that utilizes the bacteria from freshly-collected stimulated whole saliva was used. Saliva cell pellets were used to inoculate saliva-coated hydroxyapatite (S-HA) discs. The discs were placed in 24-well cell culture plates and incubated for up to 3 days. Biofilms were exposed to actives on days 2 and 3 (starting at 18 hours), and quantified on day 4. The number of bacteria was determined by spectrophotometric absorbance or optical density (OD) at 600 nm. The five phases of the experiment were: pellicle formation; bacterial attachment; biofilm growth; exposure to actives; and bacterial enumeration. To form the pellicles, HA Discs were ultrasonically washed in deionized water and air-dried, then autoclaved. The discs were placed in a 24-well plate with 1 ml 50% sterile saliva (1 part sterile whole saliva: 1 part saliva buffer, filter sterilize after preparation) for 2 hours on slow agitation at room temperature. The saliva was suctioned and then the discs were transferred to fresh wells for bacterial attachment. To form the biofilms, the bacterial suspension was removed, and the discs were transferred to fresh wells. One ml of supplemented saliva medium was added and the plate was placed in the incubator for overnight incubation and for the duration of the experiment (up to 72 hours). A stock solution of 1% Magnolia Bark Extract in 60% ethanol was prepared. Magnolia Bark Extract samples were prepared having a concentration range of 125, 250, 500, and 1000 μg/ml (ppm) in a Phosphate-Buffered-Saline (PBS) solution, where the negative control was PBS and the positive control was CHX having a concentration of 0.12%. […] One ml quantities of active ingredients and controls were placed into fresh wells, and the discs were transferred to these wells for 5 minutes. The chlorhexidine control exposure was one minute, two times a day to mimic the standard mouth-rinse procedure. The exposure to active ingredient was carried out at 8:00 AM, 12:00 and 4:00 PM. After the timed exposure, the solution was removed and the discs washed twice with PBS and then transferred to fresh medium. For some experiments, the medium used during the day was TSB (Tryptic Soy Broth) with a 50 μl 40% sterile sucrose solution added to each well (to give a 2% sucrose solution). The medium was not replaced after the mid-day exposure. After overnight incubation (day 2), discs were exposed to controls and actives. On day 3 the biofilms were again exposed to tests and controls. On day 4 the discs were removed from the medium, the medium pH was measured to obtain an indication of metabolic activity, and the discs were placed into tubes with 2.5 ml PBS, vortexed for 20 sec, and then placed into the ultrasonic bath for another 20 sec. The suspension was transferred into cuvettes and the bacterial cell density determined by OD measurements at 600 nm. To evaluate the effect of Magnolia Bark Extract in combination with the surface active agent, sodium lauryl sulfate, five active ingredient solutions were prepared using the procedures described above. […] Also, the MBE solutions were prepared to have a concentration of 500 ppm. Sodium lauryl sulfate was added to two of the Magnolia Bark Extract solutions to obtain SLS concentrations of 0.05% and 0.1% in the Magnolia Bark Extract solutions. […]

Porphyromonas gingivalis [3] = assay: Minimum-Bactericidal-Concentrations (MBC), plating on blood agar; conditions: kills at least 99.9% of initial inoculum
Method: To evaluate the effectiveness of Magnolia Bark Extract, in vitro tests were conducted with three subgingival plaque bacteria associated with oral malodor. The Minimum-Inhibitory-Concentrations (MIC) study protocol is as follows. Chlorhexidine was used as a positive control and sterile water was used as a negative control. Menthol and Tween 80 was used as a solvent for Magnolia Bark Extract. Tween 80 is the common name for Polysorbate 80. Ninety-six-well microtiter plates were used for this study. Each well contained 5×10^5 colony forming units/ml of bacteria, serially diluted agents and bacterial growth medium. All bacterial cultures were incubated at 37° C. and stationary. Bacterial growth was estimated spectrophotometrically at 660 nm, after 48 hours. […] The Minimum-Bactericidal-Concentrations (MBC) were determined using the 96-well microtiter plate serial dilutions as described above for MIC studies. Serial dilutions of cultures in wells showing no visible growth were performed and 10 microliters of culture were plated in triplicate on blood agar plates. Viable colonies were scored after incubation of the plates for 48 hours at 37° C. For each test bacterium, the number of colony forming units/ml (CFU/ml) was determined in the initial inoculum. The MBC was defined as the lowest concentration of a test compound that killed at least 99.9% of the cells present in the initial inoculum.

Fusobacterium nucleatum [4] = assay: Minimum-Inhibitory-Concentrations (MIC) study, 96-well microtiter plates; conditions: 48 hours, 37° C., turbidity at 660 nm
Method: (§2) To evaluate the effectiveness of Magnolia Bark Extract, in vitro tests were conducted with three subgingival plaque bacteria associated with oral malodor. The Minimum-Inhibitory-Concentrations (MIC) study protocol is as follows. Chlorhexidine was used as a positive control and sterile water was used as a negative control. Menthol and Tween 80 was used as a solvent for Magnolia Bark Extract. Tween 80 is the common name for Polysorbate 80. Ninety-six-well microtiter plates were used for this study. Each well contained 5×10^5 colony forming units/ml of bacteria, serially diluted agents and bacterial growth medium. All bacterial cultures were incubated at 37° C. and stationary. Bacterial growth was estimated spectrophotometrically at 660 nm, after 48 hours.

Streptococcus mutans [5] = assay: as above; conditions: 48 hours, 37° C., turbidity at 660 nm
Method: as §2

Porphyromonas gingivalis [6] = assay: as above; conditions: 48 hours, 37° C., turbidity at 660 nm
Method: as §2

S. mutans biofilm [7] = assay: MIC for formation of S. mutans biofilm in 96-well plates; conditions: BHI with 0.5% sucrose, 48 h, attached biofilm OD 660 nm
Method: (§3) Further to the results described above, the effect of Magnolia Bark Extract on biofilm formation and removal was compared with different herbal and natural ingredients. Comparative testing was performed using green tea extract, Oolong tea extract, Licorice, and Magnolia Bark Extract. The comparative testing included determining the solubility in water, ethanol, water:ethanol mixtures and other solvents (for example, Tween in water), MIC for growth of S. mutans, MIC for formation of S. mutans biofilm in 96-well plates, and the effect on detachment of S. mutans biofilm. To further evaluate the effect on S. mutans biofilm formation, 96-well microtiter plates were used. Each well contained S. mutans (5×10^6 CFU/ml), and was serially diluted with test compounds and growth medium (brain heart infusion broth (BHI) with 0.5% sucrose). The controls included inoculated growth medium without test compounds. All plates were incubated at 37° C. under aerobic condition with growth estimated spectrophotometrically (660 nm) after 48 h using a microtiter plate reader. Then, the supernatant containing unattached cells was removed from each wells by aspiration, the attached biofilm mass was dissolved with 200 μl 1 N NaOH and the optical density was measured at 660 nm using the microtiter plate reader. Chlorhexidine (40 μg/ml) was used as a positive control.

S. mutans [8] = assay: MIC for growth of S. mutans (comparative testing); conditions: Streptococcus mutans, BHI with 0.5% sucrose, 48 h
Method: as §3

Streptococcus mutans [9] = assay: Minimum-Bactericidal-Concentrations (MBC), plating on blood agar; conditions: kills at least 99.9% of initial inoculum
Fusobacterium nucleatum [10] = assay: as above; conditions: kills at least 99.9% of initial inoculum
S. mutans biofilm [11] = assay: Effect on detachment of S. mutans biofilm; conditions: pre-formed 48 h S. mutans biofilm, 30 min exposure
Method: Further to the results described above, the effect of Magnolia Bark Extract on biofilm formation and removal was compared with different herbal and natural ingredients. Comparative testing was performed using green tea extract, Oolong tea extract, Licorice, and Magnolia Bark Extract. The comparative testing included determining the solubility in water, ethanol, water:ethanol mixtures and other solvents (for example, Tween in water), MIC for growth of S. mutans, MIC for formation of S. mutans biofilm in 96-well plates, and the effect on detachment of S. mutans biofilm. To further evaluate the effect on S. mutans biofilm detachment, sterile 96-well microtiter plates were used where each well was inoculated with S. mutans (5×10^6 CFU/ml), growth medium (BHI supplemented with 0.5% sucrose), and incubated at 37° C. under aerobic condition for biofilm formation. After 48 hours, the non-attached supernatant was aspirated and serially diluted. […] After 30 min, the supernatant was aspirated from wells and the biofilm remaining after treatment was dissolved in 200 μl 1N NaOH, and quantitated at 660 nm using the plate reader. […] If detachment of the biofilm by action of the test compounds occurred, the spectrophotometric absorbance or optical density (OD) should show a decrease compared to the non-treated control.

[12] = repeat experiment with SLS, SLS 1000 ppm
[13] = CHX 0.12%, one minute, two times a day, day 4
[14] = repeat experiment with SLS, CHX 0.1% (1000 ppm)

## N=C(NCCCCCCNC(=N)NC(=N)Nc1ccc(Cl)cc1)NC(=N)Nc1ccc(Cl)cc1.O=C(O)[C@H](O)[C@@H](O)[C@H](O)[C@H](O)CO.O=C(O)[C@H](O)[C@@H](O)[C@H](O)[C@H](O)CO [Chlorhexidine gluconate, reference compound]
Incubated saliva
  MIC (ppm): 2 ppm
S. mutans [1]
  MIC/ppm: 2 ppm

## Cocamidopropyl Betaine
Incubated saliva
  germ-kill efficacy in words: good germ-kill surface active agents

## Sodium Brasslate
Incubated saliva
  MIC (ppm): 500 ppm
  germ-kill efficacy in words: moderate germ-kill efficacy

## CCCCCCCCCCCC(=O)OCCOCCOCCOCCOCCOCCOCCOCCOCCOCCOCCOCCOCCOCCOCCOCCOCCOCCOCCOCCOCC(OCCOCCOCCOCCOCCOCCOCCOCCOCCOCCOCCOCCOCCOCCOCCOCCOCCOCCOCCOCCO)C1OCC(OCCOCCOCCOCCOCCOCCOCCOCCOCCOCCOCCOCCOCCOCCOCCOCCOCCOCCOCCOCCO)C1OCCOCCOCCOCCOCCOCCOCCOCCOCCOCCOCCOCCOCCOCCOCCOCCOCCOCCOCCOCCO (stereo not shown) [Tween 20, Polysorbate 20]
Incubated saliva
  MIC: > 1000 µg/mL
  germ-kill efficacy in words: weak or non germ-kill actives

## Sucrose Stearate
Incubated saliva
  MIC (ppm): >500 ppm
  germ-kill efficacy in words: weak or non germ-kill actives

## Sodium Stearoyl Lactylate
Incubated saliva
  MIC (ppm): >3000 ppm
  germ-kill efficacy in words: weak or non germ-kill actives

## CCCCCCCCCCCCOS(=O)(=O)[O-].[Na+] [SLS, sodium lauryl sulfate]
Incubated saliva
  MIC: 50 µg/mL
  germ-kill efficacy in words: good germ-kill surface active agents
S. mutans [1]
  MIC/ppm: 100 ppm
[2]; [12]
  % OD reduction at 600 nm: 61%
  pH of the medium (metabolic activity): 5.7

## Sucrose Distearate
Incubated saliva
  MIC (ppm): >500 ppm
  germ-kill efficacy in words: weak or non germ-kill actives

## [H]/N=C(\N/C(=N/[H])NCCCCCCNC(=N)NC(=N)Nc1ccc(Cl)cc1)Nc1ccc(Cl)cc1 [CHX, chlorhexidine]
Porphyromonas gingivalis [3]
  MBC: 1.25 µg/mL (≈ 2.47 µM)
Fusobacterium nucleatum [4]
  MIC: 1.25 µg/mL (≈ 2.47 µM)
Streptococcus mutans [5]
  MIC: 1.25 µg/mL (≈ 2.47 µM)
Porphyromonas gingivalis [6]
  MIC: 1.25 µg/mL (≈ 2.47 µM)
S. mutans biofilm [7]
  MIC biofilm formation: 2.5 µg/mL (≈ 4.95 µM)
S. mutans [8]
  MIC: 2.5 µg/mL (≈ 4.95 µM)
Streptococcus mutans [9]
  MBC: 1.25 µg/mL (≈ 2.47 µM)
Fusobacterium nucleatum [10]
  MBC: 1.25 µg/mL (≈ 2.47 µM)
S. mutans biofilm [11]
  MIC biofilm detachment: >10 µg/mL
[2]; [13]
  % OD reduction at 600 nm compared to PBS control: 84%
  pH of the medium (metabolic activity): 8.8
[2]; [14]
  % OD reduction at 600 nm: 94%
  pH of the medium (metabolic activity): 8.8
